In patent US20020098186A1, “Use of endothelin inhibitors for treatment or prevention of fibrotic disorders” (priority 1999, published 2002):

Tests used:
TIMP-1 RNA = assay: Multiprobe RNAse protection assay of liver RNA, TIMP-1; assay type: in vivo, rat; details: BDO rats, LU 80 mg/kg/d for 6 weeks; relative to GAPDH; p<0.05
Protocol: (§1) Plasmids encoded predescribed regions of the rat procollagen α1 (I) and […] (GAPDH) genes, encompassing 230 bp (Bam HI/Rsal sites) and 102 bp (position 335-437), resp. (44, 45). The rat tissue inhibitor of metalloproteinase-1 (TIMP-1) probe (position 176-439) was prepared by RT-PCR according to the published sequence (J. P. Iredale, R. C. Benyon, M. J. P. Arthur (1996). Hepatology 24:176-184.), cloned into pZErO-1 (Invitrogen, San Diego, Calif., U.S.A.) and confirmed by restriction enzyme analysis. Preparation of riboprobes: The cDNA templates were linearized with appropriate restriction endonucleases. […] Riboprobes were purified by electrophoresis through a denaturing polyacrylamide gel and the radioactivity of eluted probes were measured by liquid scintillation counting. […] Autoradiographic signals were analyzed with the public domain NTH Image Program. The procollagen α1(I) and TIMP-1 RNA signals were normalized to the signal of GAPDH RNA and expressed as relative abundance (arbitrary units). 10 liver samples each of negative controls, of untreated rats with BDO and of rats with BDO that received LU at 80 mg/kg/d were analyzed.

procollagen α1(I) RNA = assay: Multiprobe RNAse protection assay of liver RNA, procollagen α1(I); assay type: in vivo, rat; details: BDO rats, LU 80 mg/kg/d for 6 weeks; relative to GAPDH; p<0.05
Protocol: as §1

[1] = tested on: rat secondary biliary liver fibrosis (BDO); assay: Histological assessment (staging) of liver fibrosis in BDO rats; assay type: in vivo
Protocol: Female adult wistar rats, average weight 206±19 g, underwent the following microsurgical procedure under an operating microscope (OPMI 6-2, Zeiss, Germany) (B. Gerling, M. Becker, J. Waldschmidt, D. Schuppan (1996). J. Hepatol. 25:79-84; G. Boigk, L. Stroedter, H. Herbst H, et al. (1997). Hepatology 26:643-639.): 1. midline abdominal incision following anaesthesia with 100 mg/kg ketamine-hydroochloride (Ketanest®, Parke-Davis, Germany) and 10 mg/kg 5,6-dihydro-2-(2,6-xylidino)-4H-1,3-thiazine-hydrochloride (Rompun®, Bayer, Germany); 2. dissection of the common bile duct, insertion of a teflon catheter (Abbocath -T 26 G, venisystems, U.S.A.) and placement of a distal complete and a proximal incomplete ligature with 5-0 silk (Permahand , Ethicon, Germany); 3. retrograde injection of sodium-amidotrizoate (Ethibloc®, Ethicon Germany) at a dose of 0.02 ml/100 g body weight; 4. removal of the catheter, closure of the proximal ligature, scission of the bile duct between the ligatures and wound closure. After bile duct occlusion (BDO), animals received normal chow (Altromin®, Lage, Germany) and were allowed free access to water. […] The following therapeutic groups were formed: 1. BDO and LU at 80 mg/kg/d for 6 weeks (BDO 80/1-6:n=20); 2. BDO and LU at 80 mg/kg/d from week 4-6 of BDO (BDO 80/4-6:n=20); 3. BDO and LU at 10 mg/kg/d (sham 80/ 1-6:n=10), rats without medication (control: n=10) and bile duct occluded animals without treatment for 6 weeks (BDO: n=20) served as controls.
For each liver 1 μm paraffin sections of the right and the left lobe were stained with hematoxylin/eosin, trichrome (Masson-Goldner) and silver impregnation (Gomori), and scores (see below of both lobes averaged. Inflammation and necrosis were graded according to the histological activity index of Knodell et al. (R. G. Knodell, K. G. Ishak, W. C. Black, et al. (1981). Hepatology 1:431-435.). Staging of fibrosis was modified from (G. Boigk, L. Stroedter, H. Herbst H, et al. (1997). Hepatology 26:643-649.) as follows: stage 0; normal; stage I: portal fiels marginally expanded by bile ductules; stage II: expanded portal fields which occasionally […] each other; stage III: markedly expanded portal fields, all of which broadly contact each other, separating hepatocellular islands; stage IV: the liver is entirely filled with fibrotic biliary proliferations that entrap few residual hepatocytes (severe cirrhosis). Scores of the right and left lobes were averaged to give single numerical values for each liver.

[2] = BDO/LU 80/1-6: LU 80 mg/kg/d week 1-6
[3] = BDO/LU 80/4-6: LU 80 mg/kg/d week 4-6

With COc1cc(OC)nc(O[C@H](C(=O)O)C(OC)(c2ccccc2)c2ccccc2)n1 [LU] the “Reduction of TIMP-1 mRNA level” value (TIMP-1 RNA) was 55%, the “Reduction of procollagen α1(I) mRNA level” value (procollagen α1(I) RNA) was 35% and the “Histological assessment of fibrosis: animals at Stage I” value [1, 2] was 2. The “Histological assessment of fibrosis: animals at Stage II” value [1, 2] was 4, the “Histological assessment of fibrosis: animals at Stage III” value (from here on “Histological assessment … at Stage III”) [1, 2] was 4 and the “Histological assessment of fibrosis: animals at Stage I” value [1, 3] was 4. For the same molecule, the “Histological assessment of fibrosis: animals at Stage II” value [1, 3] was 5, the “Histological assessment … at Stage III” value [1, 3] was 3 and the “Histological assessment of fibrosis: animals at Stage IV” value [1, 3] was 2. For the same molecule, the “Histological assessment of fibrosis: animals at Stage I” value ([1]; headed BDO/LU 80/1-6) was 8, the “Histological assessment of fibrosis: animals at Stage II” value ([1]; headed BDO/LU 80/1-6) was 5 and the “Histological assessment … at Stage III” value ([1]; headed BDO/LU 80/1-6) was 4. The “Histological assessment of fibrosis: animals at Stage IV” value ([1]; headed BDO/LU 80/1-6) was 3, the Histological fibrosis score ([1]; rats with BDO, administration of LU) was “improved histological fibrosis score” and the “Architectural distortion of the liver, semiquantitatively graded” value ([1]; rats with BDO, low-dose vs high-dose group (not shown)) was “even more significantly reduced in the low-than in the high-dose group”.
